Test results published in US20240189289A1, “INHIBITORS OF EPHB3 SIGNALING” (The Brigham and Women`s Hospital, Inc., priority 2021, published 2024).
“Also recorded” adds a separate entry of the source.

Key:
[1] = Mouse liver microsome stability; format: in vitro ADME; conditions: mouse liver microsomes; read-out: mouse liver microsome stability T1/2
[2] = Preliminary in vivo pharmacokinetic evaluation, IP, plasma and brain concentrations; set-up: species or system Sprague-Dawley rats
astrocytes [3] = assay: Cytotoxicity (LDH release) and apoptosis (caspase-3/7) assay; format: cell-based
Protocol: Cytotoxicity and apoptosis assay. Compound cytotoxicity was inferred by quantifying Lactate Deshidrogenase (LDH) release to the cells supernatants after 24 h using the CytoTox 96© Non-Radioactive Cytotoxicity Assay, (Promega #G1780) following by manufacturer's protocol. […] Briefly cells were washed with 0.5% BSA, 2 mM EDTAin 1×PBS and incubated with surface antibodies and a live/dead cell marker on ice for 30 minutes. After, cells were washed and following staining for Caspase-3/7 according the manufacturer's instructions (Invitrogen, #C10427).

astrocytes [4] = assay: TNFα production in astrocytes (AlphaLISA, astrocyte-microglia co-cultures); format: cell-based, mouse; conditions: primary astrocytes
Protocol: AlphaLISA. Astrocyte-microglia co-cultures were seeded in 384 well plates pre coated with Poly-L-Lysine at a density of 10^4 cells/well. After 3 days, cells were preincubated with the corresponding compounds 30 minutes before LPS stimulation (0.5 ng/mL Invivogen #tlrl-3pelps) and supernatants were collected after 18 h of incubation. mTNFalpha kit (Perkin Elmer #AL505) was used to measure TNFα in the supernatants following the high sensitivity protocol according to manufacturer's instructions. Briefly, 2 μl of the supernatants or given standards were subsequently mixed with 5 μl of anti-TNFα acceptor beads, 30 minutes after biotinylated antibody anti-TNFα was added after 1 h SA-Donor beads were added and incubated 30 minutes. All incubations were performed at 23° C. in the dark. Fluorescence at 615 nm was then measured using an EnVision-Apha Reader (Perkin Elmer #2105-0010).

[5] = test system: neonatal murine astrocytes; assay: Neonatal murine astrocytes activated with TNFα and IL-1β: qPCR and ELISA; format: cell-based, mouse
Protocol: (§1) Mouse primary astrocyte cultures. […] The cell suspension was then cultured at 37° C. in humidified 5% CO2 on poly-L-Lysine (#P4707, Sigma-Aldrich) pre-coated cell culture flasks. Medium was replaced every 3-5 days. The cells reached confluence after 7-10 days. Microglia were separated by shaking the glia culture at 225 rpm at 37° C. for at least 3 h and washing extensively with 1×PBS. Astrocytes were detached by mild trypsinization with Trypsin-EDTA (0.05%) at 37° C. and plated. […] Both cell types were then cultured separately for downstream procedures. […] Finally, microglia and astrocytes of each condition where magnetically separated as before and lysed for downstream gene expression analysis.
RNA isolation, cDNA synthesis and qPCR. […] Data were analyzed by the ddCt method by normalizing the expression of each gene to GAPDH and HPRT for mouse and GAPDH for human and then to the control group. All probes are listed below. • Mouse: EphB3 Mm00802553_m1, Ccl2 Mm00441242_m1, Csf2 Mm01290062_m1, Nos2 Mm00440502_m1, Tnf Mm00443258 m1, Il1b Mm00434228_m1, 116 Mm00446190_m1, GAPDH Mm99999915_g1. • Human: CCL2 Hs00234140_m1, CSF2 Hs00929873 ml, NOS2 Hs01075529_m1, TNF • Hs00174128_m1, IL6 Hs00985639_m1, IL1b Hs01555410_m1, GAPDH Hs02758991_g1.

splenic CD11b+ monocytes = assay: Monocyte migration assay with astrocyte-conditioned medium; format: cell-based, mouse; conditions: ACM from astrocytes pre-treated with compound
Protocol: Generation of astrocyte-conditioned medium (ACM). […] After 24 h, cells were extensively washed with 1×PBS, and incubated with fresh astrocyte complete medium for 48 h. Supernatants were spun down and kept at −80° C. until tested in migration and neurotoxicity assays.
Monocyte Migration Assay. Monocytes were purified from spleens from C57BL/6J mice using CD11b Microbeads (#130-049-601, Miltenyi) following the manufacturer's instructions. 100,000 monocytes were seeded in the upper chamber of a 24-well cell culture transwell, with a 5 μm pore size (#3421, Thermo Fisher Scientific), containing 300 μL of astrocyte-conditioned medium (as detailed earlier) in the bottom chamber. After 3 h incubation at 37° C. in 5% CO2, cells were collected from the lower chamber after shaking and accutase solution incubation (#A6964, Sigma-Aldrich) and quantified by FACS.

[6] = test system: PI3K/AKT/mTOR signaling in astrocytes; assay: Western blot of PI3K/AKT/mTOR/NF-κB signaling in primary murine astrocytes; format: cell-based, mouse
Protocol: as §1
SDS-PAGE and Western blot. […] Membranes were blocked in 10% skimmed milk (#M0841, Lab Scientific) in TBS-T (#IBB-180-2L, Boston BioProducts). Primary antibodies were incubated ON at 4° C. and secondary 30 minutes at RT.
HRP-conjugated blots were developed using the KwikQuant imaging system and KwikQuant western blot detection kit (#R1004 Kindle Biosciences).

[7] = astrocytes activated 30 minutes with TNFα and IL-1β
[8] = astrocytes stimulated with TNFα and IL-1β

## O=C(Nc1ccccc1Cl)c1cnc2ccc(C3CCNCC3)cn12 [A38]
[1]
  half-life: > 5 h
[2]; IP 3 mg/kg in 100% saline, male Sprague-Dawley rats, mono-oxalate salt
  brain Cmax: 331 ng/mL
[2]; inferred from the brain to plasma ratio
  Pgp substrate: not a Pgp substrate
[2]; rat, brain/plasma, IP 3 mg/kg, male Sprague-Dawley rats, mono-oxalate salt, read-out: brain to plasma ratio
  Kp: 1.5
[2]; rat, plasma, IP 3 mg/kg in 100% saline, male Sprague-Dawley rats, mono-oxalate salt
  Cmax: 221 ng/mL
[2]; rat, plasma, IP 3 mg/kg in 100% saline, male Sprague-Dawley rats, mono-oxalate salt, read-out: plasma half-life T1/2 (converted)
  half-life: 2.25 h
Astrocytes [3]; FIG. 1B
  cytotoxicity (LDH release): did not induce cytotoxicity
Astrocytes [3]; FIG. 7A
  apoptosis (caspase-3/7 activation): did not induce cytotoxicity or apoptosis
Astrocytes [4]
  TNFα production in astrocytes: suppressed TNFα production; also recorded: highly efficient in down-modulating TNF-α production
[5]
  116 expression in astrocytes (qPCR): reduced 116 expression in astrocytes in a dose-dependent manner
  production of CCL2 (ELISA): decreased
  production of IL-6 (ELISA): decreased
  production of TNFα (ELISA): decreased
Splenic CD11b+ monocytes
  ACM chemoattractant activity: reduced ACM neurotoxic and chemoattractant activity
[6]; [7]
  phosphorylation of AKT: suppressed
  phosphorylation of p85a, p55a: suppressed
[6]; [8]
  NF-κB activation (p65 phosphorylation and nuclear translocation): did not suppress NF-κB activation
  S6 phosphorylation: suppressed S6 phosphorylation
